Patent US12251373B2, “Compounds and methods of treating retinal degeneration” (CASE WESTERN RESERVE UNIVERSITY, priority 2017, dated 2025)

Legend:
C57BL/6 mice = assay: Scotopic ERG recovery after bleaching; type: in vivo, mouse; settings: 200 mg kg−1 i.p., compared to DMSO
Procedure: C57BL/6 mice at 2 months of age were placed in the dark overnight. Mice then were divided into a YC-001-treated group, a DMSO-treated group, and an unbleached group. Each group contained 3 mice (2 females and 1 male). Mice were given a single dose of YC-001 at 200 mg kg^−1 by i.p. injection. The DMSO group was treated with an equivalent volume of DMSO compared to the YC-001-treated group. One h after YC-001 or DMSO administration, mouse eyes were treated with 1% tropicamide eye drops for pupil dilation, exposed to 2,000 lux of illumination for 5 min and returned to the dark. Mice were anesthetized after a bleach for scotopic ERG recordings. Briefly, every 5 min a single-flash scotopic ERG at 1.6 cd·s·m^−2 was recorded until 1 h after a bleach. A-wave amplitudes of each ERG recording were measured, averaged from three animals, and plotted as a function of time and fitted to a linear function using Origin software version 8.1.

[1] = system: S. typhimurium TA1535, TA97a, TA98, TA100 and E. coli WP2; assay: Micro Ames test; settings: five bacteria strains, with or without S9
Procedure: To determine the potential genotoxicity of YC-001, a Micro Ames test was performed by the Charles River Laboratories, Inc. The S9 microsomal fraction was obtained from Moltox Molecular Toxicology, Inc. (Boone, NC, USA). A premixture was prepared including 25 μL of S9 mix (10% v/v S9 fraction in 8 mM MgCl2, 33 mM KCl, 100 mM sodium phosphate buffer, pH 7.4, +S9) or phosphate buffer (0.2 M sodium phosphate, pH 7.4, 0S9), 5 μL of bacterial culture (>1000×10^6 bacteria mL^−1) and 100 μL of molten top agar supplemented with 0.05 mM biotin and minimal histidine (0.05 mM) and minimal tryptophan (0.05 mM). The 24-well plates were prepared by adding 1.3 mL of minimal bottom agar (1.3% agar, Vogel-Bonner medium E and 0.25% glucose) to each well. A 10 μL aliquot of YC-001 working solution/negative/positive control was added to each well followed by addition of 130 μL of the premixture. The plates kept on a leveled surface for 1 h while the top agar solidified, then were incubated at 37° C. for 72 h. After this period, plates were stored at 4° C. before revertant colony counts were manually recorded using an inverted microscope. […]

O=C1OCC(c2ccc(Cl)s2)=C1c1cccs1 [YC-001]
scotopic ERG a-wave recovery after bleach (C57BL/6 mice): did not inhibit rhodopsin regeneration | Ames bacterial mutation test result [1]: negative
